Some test systems named below: K-562 leukemia; MDA-MB-435; HS 578T breast; T-47D breast; EKVX NSCLC; SNB-19 CNS; SF-539 CNS; OVCAR-3 ovarian; SW-620 colon; LOX IMVI melanoma; CAKI-1 renal; NCI-H460 lung; SR leukemia.
What all share (test): NCI tumour cell line growth inhibition, 48 h

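Growth conditions: 96-well plates. Treatment: test compound, 48 hours, 5 concentrations. Analysis: linear interpolation between bracketing concentrations; unreached endpoints set to highest concentration. GI50 marks 50% less growth. Definition used: TGI = concentration required for complete inhibition of growth.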

Regarding `S=C1NC2=C(COc3ccccc32)C(c2ccc(Cl)cc2)N1` (stereo not given), the TGI was 38.1 µM in the assay with K-562 leukemia; 58.2 µM in the assay with MDA-MB-435; 50.4 µM in the assay on HS 578T breast; 45 µM with T-47D breast; 34.2 µM in the assay with EKVX NSCLC; 45.3 µM in the assay on SNB-19 CNS. Besides, the TGI was determined as 34.9 µM in the assay with SF-539 CNS, 28.7 µM in the assay on OVCAR-3 ovarian, 78.8 µM with SW-620 colon and 30.3 µM in the assay with LOX IMVI melanoma.
With `COc1cc(C2C3=C(COC3=O)Oc3cc4c(cc32)OCO4)ccc1O` (stereo not given), the TGI in the assay with K-562 leukemia is more than 100 µM; in the assay with CAKI-1 renal, 0.438 µM; with T-47D breast, more than 100 µM; in the assay on EKVX NSCLC, more than 100 µM; with SNB-19 CNS it was more than 100 µM; in the assay on NCI-H460 lung, more than 100 µM. The TGI in the assay on SF-539 CNS is 1.03 µM; in the assay on OVCAR-3 ovarian it was 0.471 µM; in the assay with SW-620 colon, more than 100 µM; in the assay with LOX IMVI melanoma, more than 100 µM.
As to `COC(=O)N1CC(=O)C(C(=O)NC23CC4CC(CC(C4)C2)C3)C1` (stereo not given), the TGI in the assay with K-562 leukemia, in the assay with CAKI-1 renal, in the assay with MDA-MB-435, with SR leukemia, with T-47D breast and in the assay on SNB-19 CNS was more than 100 µM in each case. Besides, the TGI in the assay with NCI-H460 lung, in the assay on SF-539 CNS, in the assay with OVCAR-3 ovarian and in the assay with SW-620 colon was more than 100 µM in each case.
In the case of `CCCCCCCCCCCCOP(=O)(O)OP(=O)(O)OCC1OC(n2ccc(N)nc2=O)CC1O` (stereo not given), the TGI in the assay on K-562 leukemia, in the assay with CAKI-1 renal, in the assay on MDA-MB-435, with HS 578T breast, in the assay on T-47D breast and with EKVX NSCLC was more than 100 µM each time. Moreover, the TGI in the assay on SNB-19 CNS, with NCI-H460 lung, in the assay on SF-539 CNS, with OVCAR-3 ovarian, in the assay with SW-620 colon and with LOX IMVI melanoma was more than 100 µM each time.
On to `CCNC(=O)c1cc(Cl)ccc1NC(=O)C12CC3CC(CC(C3)C1)C2`, for which the TGI in the assay with K-562 leukemia is more than 100 µM; with CAKI-1 renal, more than 100 µM; with MDA-MB-435 it was more than 100 µM; in the assay on HS 578T breast, more than 100 µM; with T-47D breast, more than 100 µM; in the assay on EKVX NSCLC, 60.6 µM. The TGI in the assay with SNB-19 CNS, with NCI-H460 lung, with SF-539 CNS, in the assay on OVCAR-3 ovarian, in the assay with SW-620 colon and with LOX IMVI melanoma was more than 100 µM throughout.
Turning to `N#CC1(C#N)NC(c2ccccc2)C(C#N)(C#N)NC1c1ccccc1` (stereo not given), the TGI in the assay with K-562 leukemia, with CAKI-1 renal, in the assay on MDA-MB-435, in the assay on HS 578T breast, in the assay on T-47D breast and in the assay on EKVX NSCLC was more than 100 µM in each case. Also, the TGI with SNB-19 CNS, in the assay on NCI-H460 lung, in the assay with SF-539 CNS, in the assay with OVCAR-3 ovarian, in the assay on SW-620 colon and in the assay with LOX IMVI melanoma was more than 100 µM throughout.
For the compound `C=CC(O)(CBr)CCC(Br)C(=C)C` (stereo not given), the TGI in the assay with K-562 leukemia, in the assay with CAKI-1 renal, with MDA-MB-435, in the assay on HS 578T breast, with T-47D breast and with EKVX NSCLC was more than 10 µM throughout. In addition, the TGI in the assay on SNB-19 CNS, with NCI-H460 lung, in the assay on SF-539 CNS, in the assay with OVCAR-3 ovarian, in the assay with SW-620 colon and in the assay with LOX IMVI melanoma was more than 10 µM in each case.
Take `Cc1ccc(C2(c3ccc(Cl)cc3)c3ccccc3C3=NCCN32)cc1` (stereo not given): the TGI in the assay on K-562 leukemia is more than 100 µM; with CAKI-1 renal it was 37.9 µM; with MDA-MB-435 it was 10.1 µM; with HS 578T breast it was 33.4 µM; with T-47D breast, 39.2 µM; with EKVX NSCLC, 28.9 µM. Besides, the TGI with SNB-19 CNS came out at 28.2 µM; in the assay on NCI-H460 lung, 20.7 µM; in the assay on OVCAR-3 ovarian, 24.9 µM; in the assay with SW-620 colon, 32.6 µM; with LOX IMVI melanoma, 27.7 µM.
In the case of `Cc1c(C)c(C)c(Cn2[nH]c(=O)n(C)c2=O)c(C)c1C`, the TGI in the assay on K-562 leukemia, in the assay with CAKI-1 renal, in the assay with MDA-MB-435, with HS 578T breast, in the assay on T-47D breast and with EKVX NSCLC was more than 100 µM throughout. In addition, the TGI in the assay with SNB-19 CNS, in the assay on NCI-H460 lung, with SF-539 CNS, in the assay with SW-620 colon and with LOX IMVI melanoma was more than 100 µM throughout.
Regarding `CC1(c2sccc2Cl)CC(c2sccc2Cl)=C(C#N)C(=C(C#N)C#N)N1` (stereo not given), the TGI came to 36.1 µM in the assay with CAKI-1 renal; 48.3 µM with MDA-MB-435; 48.5 µM in the assay on HS 578T breast; 42.1 µM in the assay with T-47D breast; 34 µM in the assay with EKVX NSCLC; 38.5 µM with SNB-19 CNS. Besides, the TGI was 43.6 µM in the assay with NCI-H460 lung; 36.7 µM in the assay on SF-539 CNS; 29.8 µM in the assay with OVCAR-3 ovarian; 39 µM in the assay on SW-620 colon; 37.8 µM with LOX IMVI melanoma.
In the case of `CC1(C)[C@@H]2C[C@H]1[C@@H](Cc1cccc(C[C@H]3c4cc(-c5ccccn5)ncc4[C@H]4C[C@@H]3C4(C)C)c1)c1cc(-c3ccccn3)ncc12`, the TGI in the assay with K-562 leukemia is more than 49.1 µM; in the assay on CAKI-1 renal, 17 µM; in the assay with MDA-MB-435 it was more than 100 µM; with SR leukemia, more than 100 µM; with T-47D breast, more than 49.3 µM; in the assay on EKVX NSCLC, more than 60 µM. In addition, the TGI with SNB-19 CNS is more than 72.6 µM; in the assay with NCI-H460 lung it was more than 33.4 µM; in the assay on SF-539 CNS, more than 100 µM; with OVCAR-3 ovarian it was more than 100 µM; in the assay on SW-620 colon, more than 61.4 µM; with LOX IMVI melanoma it was more than 100 µM. The GI50 in the assay with SR leukemia is more than 100 µM.
`CCOP(=O)(OCC)/C(C#N)=C/c1cccn1C(C)C`: the TGI in the assay on K-562 leukemia, in the assay with CAKI-1 renal, in the assay with MDA-MB-435, in the assay on SR leukemia, in the assay with T-47D breast and with EKVX NSCLC was more than 100 µM in each case. Besides, the TGI in the assay on SNB-19 CNS, in the assay with NCI-H460 lung, in the assay with SF-539 CNS, with OVCAR-3 ovarian, in the assay with SW-620 colon and with LOX IMVI melanoma was more than 100 µM throughout.
Turning to `COc1ccc(/C=C2/CSCC3=C2NC(=S)NC3c2ccc(OC)c(OC)c2OC)c(OC)c1OC` (stereo not given), the TGI is more than 100 µM with K-562 leukemia; 92.2 µM in the assay on CAKI-1 renal; 61.4 µM with MDA-MB-435; more than 100 µM in the assay with HS 578T breast; more than 100 µM in the assay with T-47D breast; more than 100 µM with EKVX NSCLC. For the same compound, the TGI with SNB-19 CNS was 51.5 µM; in the assay on NCI-H460 lung it was more than 100 µM; in the assay with SF-539 CNS, 49.5 µM; in the assay with OVCAR-3 ovarian it was more than 100 µM; in the assay with SW-620 colon, 91.6 µM; with LOX IMVI melanoma, 58.3 µM.
With `CCOC(=O)CC(c1ccccc1)C(C)(C(=O)OCC)C(=O)OCC` (stereo not given), the TGI with K-562 leukemia, in the assay with CAKI-1 renal, in the assay with HS 578T breast, with SR leukemia, in the assay with T-47D breast and with EKVX NSCLC was more than 100 µM each time. For the same compound, the TGI in the assay on SNB-19 CNS, in the assay with NCI-H460 lung, in the assay on SF-539 CNS, with SW-620 colon and with LOX IMVI melanoma was more than 100 µM in each case.
Regarding `C1CSCCSCCCSC2CCCCC2SC1` (stereo not given), the TGI with K-562 leukemia, in the assay with MDA-MB-435, in the assay with SR leukemia, in the assay on T-47D breast, in the assay with EKVX NSCLC and in the assay with SNB-19 CNS was more than 100 µM throughout. For the same compound, the TGI with NCI-H460 lung, in the assay with SF-539 CNS, with OVCAR-3 ovarian, in the assay on SW-620 colon and in the assay with LOX IMVI melanoma was more than 100 µM in each case.
On to `COc1ccc(OC)c(NCC(=O)Nn2cnc3ccc(S(=O)(=O)Nc4cc(OC)ccc4OC)cc3c2=O)c1`, for which the TGI in the assay on K-562 leukemia, in the assay with CAKI-1 renal, in the assay on MDA-MB-435, in the assay on HS 578T breast, in the assay on SR leukemia and in the assay with EKVX NSCLC was more than 100 µM throughout. Also, the TGI in the assay on SNB-19 CNS, in the assay on NCI-H460 lung, in the assay with SF-539 CNS, in the assay with OVCAR-3 ovarian, in the assay on SW-620 colon and in the assay with LOX IMVI melanoma was more than 100 µM each time.
As to `COCCN(CCNC(=O)c1cccc2c(N)c3cccc(C)c3nc12)CCOC`, the TGI was found to be 4.49 µM in the assay on CAKI-1 renal; 11 µM in the assay on MDA-MB-435; 9.86 µM in the assay on HS 578T breast; 27.5 µM in the assay with T-47D breast; 7.7 µM in the assay on EKVX NSCLC; 22.3 µM in the assay on SNB-19 CNS. Further, the TGI in the assay with NCI-H460 lung is 7.11 µM; in the assay with SF-539 CNS, 4.64 µM; in the assay with OVCAR-3 ovarian, 15.2 µM; in the assay with SW-620 colon it was more than 50.2 µM; in the assay on LOX IMVI melanoma, 3.27 µM.
`COc1ccccc1Cc1ccc(C2C=CC3(CC(=O)C=C3C)C(=O)C2)o1` (stereo not given): the TGI is 50.1 µM in the assay on K-562 leukemia; more than 100 µM in the assay with CAKI-1 renal; 46.8 µM with MDA-MB-435; 68.7 µM in the assay on HS 578T breast; 43.9 µM in the assay on SR leukemia; more than 100 µM in the assay on EKVX NSCLC. For the same compound, the TGI in the assay on SNB-19 CNS is more than 100 µM; in the assay on NCI-H460 lung, more than 100 µM; with SF-539 CNS, 42.9 µM; in the assay on OVCAR-3 ovarian, 23.5 µM; in the assay with SW-620 colon, 40.7 µM; with LOX IMVI melanoma, 34.9 µM.

The record behind these values is PubChem BioAssay (NCI).
